Test [1] deals with T1, ENO1 (Enolase 1, α isoform of enolase) (Homo sapiens, UniProt P06733, K358R).
T1 construct: recombinant protein expressed in E. coli (printed for the mutants), amine-coupled to CM5 chip
Put plainly: SPR steady-state affinity (Biacore T200, CM5 chip). It counts as binding.

Test [2] concerns the target T2, ENO1 (Enolase 1, α isoform of enolase) (Homo sapiens, UniProt P06733, K358Q).
T2 construct: recombinant protein expressed in E. coli (printed for the mutants), amine-coupled to CM5 chip
Briefly: SPR steady-state affinity (Biacore T200, CM5 chip). Format: binding.

T1 sequence (P06733 2-434 K358R): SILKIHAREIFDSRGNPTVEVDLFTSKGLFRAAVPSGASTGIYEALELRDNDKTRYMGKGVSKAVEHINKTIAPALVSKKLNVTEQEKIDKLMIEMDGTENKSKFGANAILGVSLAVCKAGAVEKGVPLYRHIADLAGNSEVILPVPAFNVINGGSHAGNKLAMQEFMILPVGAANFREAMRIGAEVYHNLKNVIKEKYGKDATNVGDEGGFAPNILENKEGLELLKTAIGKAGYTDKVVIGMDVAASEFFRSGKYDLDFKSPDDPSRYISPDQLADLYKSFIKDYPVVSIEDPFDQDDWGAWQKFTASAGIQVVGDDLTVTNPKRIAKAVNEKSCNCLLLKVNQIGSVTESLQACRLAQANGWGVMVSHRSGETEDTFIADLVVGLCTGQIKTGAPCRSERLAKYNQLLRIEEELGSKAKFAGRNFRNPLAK
T2 sequence (P06733 2-434 K358Q): as the sequence (P06733 2-434 K358R) above, with R357Q counted along it

Turning to `O=C(O)[C@@H](CO)OP(=O)(O)O` [2‐PG], the dissociation constant (Kd) in test [1] worked out at 2610 nM; in test [2] it was 17.7 µM.

(Values after paper PMC12120773, “SIRT4 Promotes Pancreatic Cancer Stemness by Enhancing Histone Lactylation and Epigenetic Reprogramming Stimulated by Calcium Signaling” (Advanced Science, 2025).)
